The results in this text go back to PMC9869559, “The Weimberg pathway: an alternative for Myceliophthora thermophila to utilize D-xylose” (Biotechnology for Biofuels and Bioproducts, 2023).

The target in experiment [1] is T1, Mtxyd1 (native D-xylose dehydrogenase, XDH) (Thermothelomyces thermophilus, UniProt G2QN15).
T1 construct: gene MYCTH_112471; full-length native gene from cDNA, inserted at pck locus of M. thermophila JG207 delta-Mtxyl1 (DF1310); crude mycelial extract
T1 sequence (G2QN15 1-395): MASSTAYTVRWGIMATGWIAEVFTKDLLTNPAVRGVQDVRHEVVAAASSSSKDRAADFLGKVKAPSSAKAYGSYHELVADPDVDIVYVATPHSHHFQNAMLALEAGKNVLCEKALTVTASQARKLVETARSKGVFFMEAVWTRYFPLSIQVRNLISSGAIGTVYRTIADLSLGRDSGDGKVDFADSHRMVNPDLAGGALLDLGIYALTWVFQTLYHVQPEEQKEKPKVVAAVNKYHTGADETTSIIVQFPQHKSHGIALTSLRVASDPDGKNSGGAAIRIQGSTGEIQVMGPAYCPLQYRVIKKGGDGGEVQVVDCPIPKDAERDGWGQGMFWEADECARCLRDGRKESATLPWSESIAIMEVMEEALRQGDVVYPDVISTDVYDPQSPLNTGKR
The experiment in a line: NADP+ reduction at […] nm, crude mycelial extract of overexpressing strain. The format is biochemical. The conditions noted are these: 100 mM D-xylose, 2 mM NADP+, 2 mM MgCl2, 100 mM Tris-HCl pH 8.0, 30 °C.

In experiment [2] the target is T2, Trxyd1 (D-xylose dehydrogenase, XDH) (Trichoderma reesei, UniProt G0R8G7).
T2 construct: gene TRIREDRAFT_53673; full-length gene from cDNA, inserted at pck locus of M. thermophila JG207 delta-Mtxyl1 (DF1309); crude mycelial extract
T2 sequence (G0R8G7 1-391): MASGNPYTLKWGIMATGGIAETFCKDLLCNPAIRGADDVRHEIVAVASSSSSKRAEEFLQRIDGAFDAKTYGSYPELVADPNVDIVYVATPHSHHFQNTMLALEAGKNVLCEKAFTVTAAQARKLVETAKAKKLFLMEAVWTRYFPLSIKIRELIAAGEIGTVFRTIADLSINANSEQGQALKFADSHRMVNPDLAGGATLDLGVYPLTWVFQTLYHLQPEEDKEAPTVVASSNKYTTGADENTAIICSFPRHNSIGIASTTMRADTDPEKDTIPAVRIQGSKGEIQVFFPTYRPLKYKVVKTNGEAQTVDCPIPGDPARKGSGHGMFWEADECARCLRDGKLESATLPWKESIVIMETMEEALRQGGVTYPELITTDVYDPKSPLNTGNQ
Kind of experiment: NAD+ or NADP+ reduction at […] nm, crude mycelial extract of overexpressing strain. Format: biochemical. The note with it: 100 mM D-xylose, 2 mM NAD+ or NADP+, 2 mM MgCl2, 100 mM Tris-HCl pH 8.0, 30 °C.

`NC(=O)c1ccc[n+]([C@@H]2O[C@H](COP(=O)(O)OP(=O)(O)OC[C@H]3O[C@@H](n4cnc5c(N)ncnc54)[C@H](OP(=O)(O)O)[C@@H]3O)[C@@H](O)[C@H]2O)c1` [NADP^+]: the specific activity entry in experiment [1] is listed as “When using NADP^+ as a cofactor, XDH encoded by endogenous Mtxyd1 owned the highest activity”. With `OC1OC[C@@H](O)[C@H](O)[C@H]1O` (stereo partly drawn) [D-xylose], the specific activity result in experiment [1] was “XDH encoded by endogenous Mtxyd1 owned the highest activity”; in experiment [2], “The enzymatic activity of XDH in strains DF1309 and DF1310 was verified”.
